Measurements taken from patent publication US6916843B1, “Anti-inflammatory actions of cytochrome P450 expoxygenase-derived eicosanoids” (The United States of America as represented by the …, priority 1999, dated 2005).

Key:
[1] = test system: mononuclear cell adhesion to carotid artery; experiment: TNF-α-induced mononuclear cell (U937) adhesion in the murine carotid artery; type: in vivo; conditions: mouse, intra-arterial infusion 100 ng/kg/min, TNF-α 10 μg/kg i.p., 5 hours
Method: (§1) FIG. 3A is a graph showing the expression of VCAM-1 in the murine carotid artery at 5 hours after treatment with intraperitaneal injection of TNF-α (10 μg/kg) alone or in combination with continuous intra-arterial infusion of [11,12]-EET (100 ng/kg/min). FIG. 3B is a bar graph showing the effect of [11,12]-EET on TNF-α induced mononuclear cell adhesion in the murine carotid artery. The mononuclear cells (U937) were perfused through the carotid artery at a wall shear stress of 3 dyn/cm^2. Intra-arterial infusion of vehicle (saline) or [14,15]-EET (100 ng/kg/min) had no effect. […] All experiments except the [14,15]-EET infusion were performed in duplicate.
(§2) To determine the functional relevance of EETs in vascular inflammation, we tested [11,12]-EET and its regioisomer [14,15]-EET in a recently developed in vivo model of TNF-α-induced VCAM-1 -mediated mononuclear cell adhesion in the murine carotid artery. […]
(§3) Cell rolling and adhesion were recorded on videotape using stroboscopic epifluoresence illumination with an introvital microscope (objective Zeiss 20×, 0.5 numerical aperture). […] In separate experiments, VCAM-1 expression was measured in paraffin-sections (5 μm thick) of carotid arteries harvested from mice treated in the same way. […]

[2] = test system: VCAM-1 expression; experiment: Cell-surface enzyme immunoassay of cytokine-induced VCAM-1 expression in endothelial cells; type: cell-based, human; conditions: 100 nM, 24 hours
[3] = test system: VCAM-1; experiment: VCAM-1 expression in the murine carotid artery after TNF-α; type: in vivo; conditions: mouse, intra-arterial infusion 100 ng/kg/min, TNF-α 10 μg/kg i.p., 5 hours
Method: as §1, §2, §3

[4] = test system: IκB-α; experiment: Fate of IκB-α after TNF-α stimulation of human endothelial cells; type: cell-based; conditions: TNF-α 10 ng/ml, 15 min; EET 100 nM
Source text: Co-treatment with [11,12]-EET prevented the nuclear accumulation of RelA. Since the nuclear translocation of RelA requires the degradation of its endogenous cytoplasmic inhibitor, inhibitor kappa B (IκB-α), we followed the fate of IκB-α after TNF-α stimulation in the presence or absence of [11,12]-EET. Stimulation of human endothelial cells with TNF-α caused a rapid and almost complete disappearance of IκB-α which was prevented by co-treatment with [11,12]-EET, but not [14,15]-EET.
(§4) A set of gel shift assays was performed. […] In some assays, [11,12]-EET (100 nM) was also added directly to the IKK assay (in vitro). As a control for nonspecific phosphorylation, the assay was performed without the addition of immunoprecipitated IKK (no enzyme) or in the presence of a IκB-α mutant (ΔSer 32, Ser 36→Thr) as substrate. The assay was performed three times with similar results.
(§5) Specificity of IKB was determined by the complete absence of phosphorylation when the mutated IκB-α substrate, GST-1κB-α (Δ32,36: S→T) which cannot be phosphorylated at serine residues 32 and 36, was substituted for wild-type GST-IκB-α.

[5] = test system: IκB kinase (IKK); experiment: IKK activity assay with GST-IκB-α substrate, TNF-α-stimulated endothelial cells; type: biochemical, human; conditions: 100 nM, TNF-α 10 ng/ml, 15 min
Method: as §4, §5

[6] = test system: superoxide anion; experiment: Superoxide anion formation by BAECs (lucigenin chemiluminescence); type: cell-based, bovine; conditions: CYP2J2-transfected vs GFP-transfected cells
Method: The rate of superoxide anion generation by BAECs was determined as follows: Forty-eight hours after transfection with either pcDNA3.1/GFP or pcDNA3.1/CYP2J2, BAECs were detached by treatment with trypsin and resuspended in culture medium containing 10% FBS. Special care was taken to avoid unnecessary manipulation of the BAECs. The rate of superoxide anion formation in vitro was determined by chemiluminescence of lucigenin (bis-N-methylacridinium nitrate) as described by Yang et al., 274 Am. J. Physiol. H1955-H1961 (1998)). Briefly, culture medium (10% of FBS added) containing 0.25 mmol/L lucigenin (pH 7.4) was prepared as an assay solution. One milliliter of this assay solution was placed in a plastic scintillation vial., and then 2×10^6 BAECs were gently placed in the assay solution. The chemiluminescence of lucigenin was then detected with the use of a scintillation counter (LS 6500, Beckman Instruments, Fullerton, Calif.) in out-of-coincidence mode with a single active photomultiplier tube every 5 min. The chemical specificity of this light-yielding reaction for superoxide anion has been reported previously (Yang et al., 274 Am. J. Physiol. H1955-H1961 (1998)).

CCCCC/C=C\C[C@H]1O[C@H]1C/C=C\C/C=C\CCCC(=O)O [[11,12]-EET]
mononuclear cell adhesion to the vessel wall [1]: inhibited
inhibition of IL-1α-induced VCAM-1 expression ([2]; IL-1α): inhibited
inhibition of LPS-induced VCAM-1 expression ([2]; LPS 10 ng/ml): inhibited
VCAM-1 expression in carotid artery [3]: decreased
effect on TNF-α-induced disappearance/degradation of IκB-α [4]: prevented
inhibition of TNF-α-induced IKK activity [5]: > 90%

CYP2J2: CYP2J2 cDNA (1.9 kb) subcloned into plasmid pcDNA3.1, transfected into endothelial cells
rate of superoxide anion formation [6]: significantly lower
